Laboratory results reported in patent US4171312A, “Alkyl 7-[tetrahydro-4-(3-hydroxy-1-octenyl)-2,6-dioxo-4H-cyclopenta-1,3-dioxol -5-yl]-5-heptenoates” (G. D. Searle & Co., priority 1978, dated 1979).

Test system: fecundity of hamsters
Assay: standardized test for capacity to inhibit the fecundity of hamsters (implantation rate)
Type: in vivo, Syrian golden hamsters
Method: The contraceptive utility of the instant compounds is evident from the results of a standardized test for their capacity to inhibit the fecundity of hamsters. In this test, sexually-mature female Syrian golden hamsters weighing at least 105 g are mated; and to each of a group of 5 is administered, daily for 5 days beginning on the first day sperm appears in the vagina between 8:15 and 10:00 a.m., test compound dissolved or suspended in an inert vehicle. The initial daily dose is ordinarily 50 mg/kg in 0.2 ml of corn oil, subcutaneously or intragastrically. A group of such animals to which is likewise administered vehicle alone serves as controls. Approximately 48 hr. after the 5th dose, the animals are sacrificed and their uteri and ovaries inspected for implantation sites and corpora lutea. If the total number of the former divided by the total number of the later (i.e., the implantation rate) affords a value amounting to 0.5 or less, the compound is considered to inhibit fecundity in the foregoing test. The ED50 of such a compound is determined by repeating the test at appropriate doosage(s). Potency is expressed as the ratio of the ED50 of estrone to that of compound.

[1] = mated female Syrian golden hamsters, 10 mg/kg subcutaneously in corn oil, daily for 5 days

CCCCC[C@H](O)/C=C/C1C(C/C=C\CCCC(=O)OC)C(=O)C2OC(=O)OC21 (stereo partly drawn) [Example 1, methyl 7-[tetrahydro-4-(3S-hydroxy-1E-octenyl)-2,6-dioxo-4H-cyclopenta-1,3-dioxol-5-yl]-5Z-heptenoate]
ED50 (Mesocricetus auratus, 120 h, mated female Syrian golden hamsters, daily for 5 days, read-out: ED50 (inhibition of fecundity)): 5.6 mg/kg
implantation rate (total implantation sites divided by total corpora lutea) [1]: 0.16
inhibition of fecundity (implantation rate 0.5 or less) [1]: inhibited fecundity
potency (ratio of the ED50 of estrone to that of compound) (relative to estrone, hamster fecundity test): approximately 1%
